This is an account of results in PMC4978996 (Scientific Reports, 2016).

Values joined by “and” are separate entries in the source; they are usually repeats but may differ in a detail not shown here. Identical values can stand only once.

The test system of one assay is ChAT. Set-up: method as in literature. To be noted: ChAT inhibition, experimentally determined value taken from literature; ref literature; cited from earlier work.
The target in another assay is T1, recombinant human ChAT (Homo sapiens, UniProt P28329).
T1 construct: His6 (N); made in house; host or cells: E. coli BL21 Rosetta2
T1 sequence (P28329 1-630 isoform P28329-3): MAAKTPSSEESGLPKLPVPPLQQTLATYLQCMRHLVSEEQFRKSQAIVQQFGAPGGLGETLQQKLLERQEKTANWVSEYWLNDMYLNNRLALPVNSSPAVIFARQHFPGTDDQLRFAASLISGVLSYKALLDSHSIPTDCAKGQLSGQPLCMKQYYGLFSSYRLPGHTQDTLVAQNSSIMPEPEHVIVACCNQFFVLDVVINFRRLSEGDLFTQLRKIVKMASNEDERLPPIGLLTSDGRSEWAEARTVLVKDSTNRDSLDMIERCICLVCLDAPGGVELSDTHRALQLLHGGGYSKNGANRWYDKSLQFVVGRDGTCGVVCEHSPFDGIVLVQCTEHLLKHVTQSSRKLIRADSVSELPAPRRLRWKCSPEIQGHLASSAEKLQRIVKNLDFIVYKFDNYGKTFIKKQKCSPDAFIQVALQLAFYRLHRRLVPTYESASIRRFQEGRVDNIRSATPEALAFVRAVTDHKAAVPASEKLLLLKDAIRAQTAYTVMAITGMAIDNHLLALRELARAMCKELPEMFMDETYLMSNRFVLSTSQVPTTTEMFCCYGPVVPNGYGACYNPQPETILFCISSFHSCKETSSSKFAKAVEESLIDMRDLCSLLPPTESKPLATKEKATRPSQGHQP
The assay can be described thus: Colorimetric ChAT assay with recombinant human ChAT protein. The class given is biochemical. Here is the method:
ChAT activity was measured with a new colorimetric assay as described previously, using recombinant ChAT protein. Briefly, 20 μL/wells of 1.5 μg/ml of the recombinant ChAT was incubated with 20 μL/well of different concentrations of α-NETA for 30 minutes at room temperature in dilution buffer (10 mM Tris-HCl, pH 7.4, 150 mM NaCl, 1.0 mM EDTA, 0.05% (v/v) Triton X-100). […]
Then 50 μl of a cocktail-B [phosphate buffered saline, containing 0.93 U/ml choline oxidase (C5896, Sigma-Aldrich), 1/5000 U streptavidin-horseradish peroxidase, 6.3 mM phenol, and 3 mM 4-aminoantipyrine (A4382, Sigma-Aldrich)] was added to each sample including the standards. Absorbance was then monitored using a microplate spectrophotometer reader (Infinite M1000, Tecan) at 500 nm wavelength. ChAT activity (nmol/min/mg of recombinant protein) was calculated according to the following formula: ChAT activity [ChBL-ChS]/t/m, where ChBL is the measured number of mole of choline in control wells lacking the inhibitor and ChAT, ChS is the measured number of mole of choline in the sample wells, the t is the incubation time and m is the mass of ChAT protein added per sample well. […]

For another assay, the target named is T2, AChE (Homo sapiens, UniProt P22303).
T2 construct: purchased Sigma
In words: Modified Ellman's colorimetric assay, AChE activity. The class given is biochemical. Here is the method: (§1) A modified version of Ellman’s colorimetric assay was used for the enzymatic activity of BuChE and AChE, as described previously. For BuChE activity, 50 μL/well of a 1:400 diluted solution of a pooled human plasma sample was used. For AChE activity, the 1:400 diluted pooled human plasma samples had been supplied with 50 ng/ml of purified AChE protein (Sigma). These were preincubated with 50 μL/wells of different concentrations of α-NETA for 30 minutes at room temperature. Then, 100 μL of a cocktail (Na/K phosphate buffer, containing 5,5′-dithiobis(2-nitrobenzoic acid) (DTNB, final concentration 0.4 mM) and butyrylthiocholine iodide (Sigma, final concentration 5 mM) or acetylthiocholine iodide (Sigma, final concentration 0.5 mM) were added and the changes in absorbance was monitored at one minutes intervals at 412 nm wavelength. For the AChE activity, the cocktail also contained the selective BuChE inhibitor ethopropazine (Sigma, final concentration 0.1 mM).
Background: Ellman's reagent forms a yellow product with free thiols.

Another assay addresses T3, BuChE (Homo sapiens, UniProt P06276).
T3 construct: a 1:400 diluted solution of a pooled human plasma sample was used; from tissue; host or cells: pooled human plasma
The assay can be described thus: biochemical. On the procedure:
as §1

For assay [1], the system named is purified human placental ChAT. Set-up: method as in PMID 3361452. Particulars: cited from earlier work.

T2 sequence (P22303 32-614): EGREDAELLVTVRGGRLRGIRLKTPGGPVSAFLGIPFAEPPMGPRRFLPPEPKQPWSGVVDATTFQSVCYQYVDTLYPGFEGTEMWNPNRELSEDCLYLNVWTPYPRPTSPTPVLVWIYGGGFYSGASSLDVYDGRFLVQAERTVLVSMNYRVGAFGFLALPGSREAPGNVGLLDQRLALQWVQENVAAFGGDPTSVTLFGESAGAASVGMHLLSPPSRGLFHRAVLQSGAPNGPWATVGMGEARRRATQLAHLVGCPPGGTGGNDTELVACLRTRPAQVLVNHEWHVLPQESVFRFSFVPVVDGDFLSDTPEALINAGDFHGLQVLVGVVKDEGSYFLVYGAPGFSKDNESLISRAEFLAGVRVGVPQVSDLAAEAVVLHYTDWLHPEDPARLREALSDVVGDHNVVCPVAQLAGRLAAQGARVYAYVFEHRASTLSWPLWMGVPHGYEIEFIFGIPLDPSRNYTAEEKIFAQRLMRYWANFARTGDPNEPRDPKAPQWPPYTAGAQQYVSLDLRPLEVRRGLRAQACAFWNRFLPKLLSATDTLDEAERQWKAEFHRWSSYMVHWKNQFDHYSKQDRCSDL
T3 sequence (P06276 29-602): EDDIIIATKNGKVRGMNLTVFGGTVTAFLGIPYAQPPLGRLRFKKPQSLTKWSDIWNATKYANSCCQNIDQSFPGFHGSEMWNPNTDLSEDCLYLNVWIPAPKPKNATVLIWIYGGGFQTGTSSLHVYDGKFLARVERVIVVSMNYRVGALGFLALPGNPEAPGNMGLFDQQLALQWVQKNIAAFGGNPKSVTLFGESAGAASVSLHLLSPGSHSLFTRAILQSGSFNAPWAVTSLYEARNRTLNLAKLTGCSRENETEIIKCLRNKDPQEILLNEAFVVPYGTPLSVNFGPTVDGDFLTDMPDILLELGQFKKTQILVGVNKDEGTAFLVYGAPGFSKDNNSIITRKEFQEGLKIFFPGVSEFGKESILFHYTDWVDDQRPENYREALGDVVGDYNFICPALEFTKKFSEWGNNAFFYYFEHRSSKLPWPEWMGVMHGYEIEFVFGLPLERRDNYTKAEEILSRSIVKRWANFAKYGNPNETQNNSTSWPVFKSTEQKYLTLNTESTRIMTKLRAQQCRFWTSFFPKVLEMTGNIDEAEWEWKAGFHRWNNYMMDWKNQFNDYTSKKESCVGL

Consider `C[n+]1ccc(/C=C/c2cccc3ccccc23)cc1` [Compound 1], for which, in the assay with ChAT, the “Actual pIC50 / Observed pIC50” value is reported as 6.33.

On to `C[n+]1ccc(/C=C/c2cccc(Br)c2)cc1` [Compound 2], for which, in the assay on ChAT, the “Actual pIC50 / Observed pIC50” value was 5.83.

For the molecule `C[n+]1ccc(/C=C/c2cccc(Cl)c2)cc1` [Compound 3], the “Actual pIC50 / Observed pIC50” value in the assay on ChAT was 5.64. On to `C[n+]1ccc(/C=C/c2ccc(Br)cc2)cc1` [Compound 4], for which the “Actual pIC50 / Observed pIC50” value in the assay on ChAT was 5.59. On to `C[n+]1ccc(/C=C/c2ccc(Cl)c(Cl)c2)cc1` [Compound 5], for which the “Actual pIC50 / Observed pIC50” value in the assay with ChAT is reported as 5.48.

`C[n+]1ccc(/C=C/c2ccc(Cl)cc2)cc1` [Compound 6]: the “Actual pIC50 / Observed pIC50” value in the assay with ChAT is given as 5.16.

In the case of `C[n+]1ccc(/C=C/c2ccccc2)cc1` [Compound 7], the “Actual pIC50 / Observed pIC50” value with ChAT is recorded as 4.83. As for `Cc1ccc(/C=C/c2cc[n+](C)cc2)cc1` [Compound 8], the “Actual pIC50 / Observed pIC50” value in the assay with ChAT is 4.70. For the molecule `C[n+]1ccc(/C=C/c2ccc(F)cc2)cc1` [Compound 9], the “Actual pIC50 / Observed pIC50” value in the assay on ChAT is 4.68. As to `C[n+]1ccc(/C=C/c2ccccc2Cl)cc1` [Compound 10], the “Actual pIC50 / Observed pIC50” value in the assay with ChAT is recorded as 4.56. Consider `C[n+]1ccc(/C=C/c2cccc([N+](=O)[O-])c2)cc1` [Compound 11], for which, in the assay on ChAT, the “Actual pIC50 / Observed pIC50” value was 3.83. On to `C[n+]1ccc(/C=C/c2ccc([N+](=O)[O-])cc2)cc1` [Compound 12], for which the “Actual pIC50 / Observed pIC50” value with ChAT is recorded as 3.70.

With `Cc1c[n+](C)ccc1/C=C/c1cccc2ccccc12` [Compound 13], the “Actual pIC50 / Observed pIC50” value with ChAT was 6.40. Turning to `Cc1c[n+](C)ccc1/C=C/c1cccc(Cl)c1` [Compound 14], the “Actual pIC50 / Observed pIC50” value with ChAT was 5.80. With `Cc1c[n+](C)ccc1/C=C/c1ccc(Cl)c(Cl)c1` [Compound 15], in the assay on ChAT, the “Actual pIC50 / Observed pIC50” value is reported as 5.77. As to `Cc1c[n+](C)ccc1/C=C/c1ccccc1` [Compound 16], the “Actual pIC50 / Observed pIC50” value in the assay with ChAT is listed as 5.30. For the molecule `Cc1c[n+](C)ccc1/C=C/c1ccccc1Cl` [Compound 17], in the assay on ChAT, the “Actual pIC50 / Observed pIC50” value is 4.77.

As for `Cc1c[n+](C)ccc1/C=C/c1c[nH]c2ccccc12` [Compound 18], the “Actual pIC50 / Observed pIC50” value in the assay on ChAT is listed as 4.41. In the case of `OCC[n+]1ccc(/C=C/c2cccc(Br)c2)cc1` [Compound 19], in the assay on ChAT, the “Actual pIC50 / Observed pIC50” value was 5.38. With `OCC[n+]1ccc(/C=C/c2cccc(Cl)c2)cc1` [Compound 20], the “Actual pIC50 / Observed pIC50” value in the assay on ChAT is reported as 5.62. For `C[n+]1ccc(/C=C/c2ccccc2)c2ccccc21` [Compound 21], the “Actual pIC50 / Observed pIC50” value in the assay with ChAT is given as 5.46.

`C[n+]1ccc(/C=C/c2cccs2)c2ccccc21` [Compound 22]: in the assay on ChAT, the “Actual pIC50 / Observed pIC50” value was 3.60. Turning to `C[n+]1ccc(/C=C/c2cccnc2)c2ccccc21` [Compound 23], in the assay with ChAT, the “Actual pIC50 / Observed pIC50” value was 3.22. In the case of `OCC[n+]1ccc(/C=C/c2cccc3ccccc23)c2ccccc21` [Compound 24], in the assay with ChAT, the “Actual pIC50 / Observed pIC50” value is 6.28. Turning to `OCC[n+]1ccc(/C=C/c2ccccc2)c2ccccc21` [Compound 25], the “Actual pIC50 / Observed pIC50” value in the assay on ChAT is 5.54. As to `C[N+](C)(C)CCC(=O)c1cccc2ccccc12.[I-]` [α-NETA, 2-(α-naphthoyl) ethyltrimethylammonium iodide], the “higher potency as ChAT inhibitor in this system than reported” value on recombinant human ChAT (IC50 88 nM versus reported ~9 μM) is reported as ~ 100 folds. For the same molecule, the IC50 (in general, the concentration that gives 50% inhibition) on recombinant human ChAT (recombinant human ChAT, 30 min preincubation) was ~0.088 µM and 0.088 µM; against AChE (30 min preincubation) it was ~30 µM and 34.2 µM; against BuChE (pooled human plasma, 30 min preincubation), ~30 µM and 33.3 µM; in assay [1] (read-out: IC50 (reported, ChAT)), about 9 µM. Besides, testing at 10 µM on AChE (at a concentration of 10 μM) gave an inhibition of 10%. For the same molecule, the “selectivity for ChAT compared to AChE” value at AChE (based on IC50 ratios) was 388 fold and ~ 388 fold. Also, the inhibition – broadly, the relative decrease from the control value, in per cent – at 3 µM against BuChE (at a concentration of 3 μM) stood at 10%. For the same molecule, the “selectivity for ChAT relative to BuChE” value at BuChE (based on IC50 ratios) is reported as ~ 378 fold. Besides, the “Observed pIC50 (reported pIC50)” value in assay [1] is on record as 5.05.
